Tests used:
[1] = system: MCF-7; assay: Cell cycle analysis (propidium iodide flow cytometry) in MCF-7; assay type: cell-based; conditions: MCF-7 cell cycle distribution
Description: Compound 6i arrested cells in the G2/M phase with %G2/M = 27.07, compared with %G2/M = 11.31 for the control MCF-7 (Table 5 and Figure 4).
These were performed using the approach described in the Supplementary Data, page 44 [46]. […]
thoroughly, and then centrifuge at 4°C to collect contents to the bottom of the tube. Chill on ice before using. Centrifuge again briefly at 4°C if needed. Preparation of a reaction cocktail is crucial in quantitative PCR applications to reduce pipetting errors and maximize assay precision and accuracy. Assemble the reaction cocktail with all required components except sample template (total RNA) and dispense equal aliquots into each reaction tube. Add target sample to each reaction as the final step. Addition of sample as 5–10 μl volumes will improve assay precision. Replicate samples should be assembled as a master mix with a single addition of sample template.
Cell cycle analysis and apoptosis
Transfer the previously prepared cells from 4 °C to the bench-top and equilibrate to room temperature. Gently re-suspend cells by inverting the tube or by gentleup and down pipetting.
There may be visible thin salt crystals in the tube but this will not affect the sedimentation of the cells in the next step. Pellet the cells at 500 x g for 5 minutes. Carefully aspirate the supernatant without disrupting the pellet. It is better to incompletely remove the supernatant than to accidently aspirate part of the pellet and lose cells. Wash the cells by gently resuspending in 1 mL 1X PBS.
Again, pellet the cells at 500 x g for 5 minutes and carefully remove the supernatant. Gently resuspend the cell pellet in 200 μL 1X Propidium Iodide + RNase Staining Solution. Then ensure that the cells are fully resuspended. Incubate at 37 °C in the dark for 20 – 30 minutes. Place tubes on ice (still in the dark) and prepare for flow cytometry analysis. Gently resuspend cells that settled during the incubation by pipetting up and down. If desired, pass cells through an appropriate filter (not provided) to remove cell aggregates. […] Collect Propidium iodide fluorescence in FL2. […]

[2] = system: MCF-7 breast cell line; assay: MTT assay, anti-proliferative activity toward MCF-7; assay type: cell-based; conditions: Homo sapiens, MCF7
Description: . The developed compounds were evaluated in vitro using the MTT cell viability assay following the published techniques (Supplementary Data, page 42). […]
The 96 well tissue culture plate was seeded with 1 X 10^5 cells / ml (100 ul / well) and cultured at 37 degrees Celsius for 24 hours to form a full monolayer sheet. After forming a confluent sheet of cells, growth medium was decanted from 96 well micro titer plates, the cell monolayer was washed twice with wash media, and two-fold dilutions of the tested sample were prepared in RPMI medium with 2% serum (maintenance medium). In each well, 0.1 ml of each dilution was examined, with three wells serving as controls and receiving only maintenance media.
The plate was incubated at 37 degrees Celsius and then analyzed. Cells were examined for any physical evidence of toxicity, such as partial or total monolayer loss, rounding, shrinkage, or cell granulation. MTT solution (5mg/ml in PBS) was prepared (BIO BASIC CANADA INC), and 20ul MTT solution was added to each well. Shake the MTT into the medium for 5 minutes at 150rpm on a shaking table. Incubate for 4 hours (37°C, 5% CO2) to allow the MTT to be digested. Remove the media. (If required, dry plate on paper towels to remove residue. In 200ul DMSO, resuspend formazan (MTT metabolic product). Shake at 150rpm for 5 minutes to properly mix the formazan into the solvent. At 560nm, measure optical density and subtract background at 620nm. The optical density should be proportional to the number of cells. MCF-7 and MCF-10A cell lines were provided with 10% fetal bovine serum (FBS, Sigma-Aldrich, MO, USA). Data are presented as the mean of the IC50 values ± SD from three different experiments. […]

CCCCN1C(=O)C(=NNC(=O)c2c(C)nc3sccn23)c2ccccc21 [Compound 6i, N′-(1-Butyl-2-oxoindolin-3-ylidene)-6-methylimidazo[2,1-b]thiazole-5-carbohydrazide]
%G2/M ([1]; control 11.31): 27.07% | %S ([1]; control 23.96): 19.27% | %G0–G1 ([1]; control 64.73): 53.66% | IC50 [2]: 8.38 ± 0.62 µM | melting point: 250 to 251 °C

Source: publication PMC10892120, “Design, Synthesis and Biological Assessment of N′-(2-Oxoindolin-3-ylidene)-6-methylimidazo[2,1-b]thiazole-5-carbohydrazides as Potential Anti-Proliferative Agents toward MCF-7 Breast Cancer” (Pharmaceuticals, 2024)
